The source of these data is article PMC5924986, “Cellular and Biophysical Pipeline for the Screening of Peroxisome Proliferator-Activated Receptor Beta/Delta Agonists: Avoiding False Positives” (PPAR Research, 2018).

Series [1] addresses T1, hPPARß/δ LBD (Homo sapiens, UniProt Q03181).
T1 construct: cDNA (amino acids 171–441) inserted into pET28a vector; His-tag; made in house; host or cells: Escherichia coli BL21(DE3)
T1 sequence (Q03181 171-441): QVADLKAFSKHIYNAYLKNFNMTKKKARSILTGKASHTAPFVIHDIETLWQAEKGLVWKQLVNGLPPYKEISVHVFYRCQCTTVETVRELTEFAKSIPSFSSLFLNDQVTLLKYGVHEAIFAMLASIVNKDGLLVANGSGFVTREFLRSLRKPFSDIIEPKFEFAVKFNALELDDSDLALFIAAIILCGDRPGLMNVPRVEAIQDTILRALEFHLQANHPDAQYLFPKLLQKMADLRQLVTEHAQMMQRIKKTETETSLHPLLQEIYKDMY
Kind of series: ANS fluorescence quenching. Type of series: binding. The settings on record: 2 μM hPPARß/δ LBD, 20 μM ANS; for ANS fluorescence quenching / ANS probe displacement (qualitative): compounds 0.3–50 μM, extracts 0.005–1 mg/mL.

In series [2] the target is T1, hPPARß/δ LBD. Put plainly: Qualitative thermal shift assay (TSA). Type of series: binding. Conditions: commercial agonists at 30 μM, 10 μM PPARß/δ, vs apo-PPARß/δ.
The test system of another series is 293T cells. Kind of series: Cytotoxicity: MTT assay and Renilla reporter expression. The settings on record: 1 μM, 1% DMSO as vehicle, compared with 0.1% or 1% DMSO. Type of series: cell-based. How it is done: We performed vector normalization with the raw luminescence data to control for differences in transfection efficiency between samples. For vector normalization we calculate luciferase signal/Renilla signal. The assay performance was assessed by plate statistics (signal-to-background ratio, Z′-factor, coefficient of variation) and apparent cytotoxicity was a measure of Renilla luciferase parameters. For Z′-factor calculation, we consider, after vector normalization, the positive controls (GW0742) as signal, and negative controls (DMSO) as background. For cytotoxicity, wells with expression of Renilla reporter five standard deviations (5 × SD) below the mean value of the controls treatment were considered cytotoxic and consequently were disregarded. We considered as hit candidates compounds/extracts with luminescence firefly/Renilla ratio 7 times above the standard deviation of negative controls (DMSO) from the same plate. […]
Additionally, we related the 3-(4,5-dimethyl-2-thia-zoyl)-2,5-diphenyl-2H-tetrazolium bromide (MTT) results with Renilla reporter expression to assess when a test compound/extract might be toxic to the cells, only based on Renilla reporter expression. […] The absorbance was measured at 562 nm using an EnSpire® Multimode Plate Reader (Perkin Elmer). […] Data were analyzed by 2-way ANOVA followed by Sidak's multiple comparison test in GraphPad Prism software. […]
A general note: Tetrazolium dyes change colour on reduction, which living cells bring about.

Series [3] deals with PPARß/δ. The settings on record: read-out: EC50 found in the literature, cited from earlier work.
Series [4] concerns the target T2, PPARß/δ (Homo sapiens, UniProt Q03181).
T2 construct: expressed in transfected cells; host or cells: 293T cells (ATCC CRL-3216), transient transfection
T2 sequence (Q03181 211-439 limits assumed): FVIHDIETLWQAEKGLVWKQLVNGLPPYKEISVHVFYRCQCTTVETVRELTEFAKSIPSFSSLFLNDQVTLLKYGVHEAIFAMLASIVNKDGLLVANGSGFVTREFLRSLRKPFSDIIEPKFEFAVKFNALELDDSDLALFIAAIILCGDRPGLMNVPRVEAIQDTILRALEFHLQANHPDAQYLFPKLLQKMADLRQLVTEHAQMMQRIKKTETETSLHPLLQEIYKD
Put plainly: PPARß/δ transactivation assay (Gal4-DBD/PPARß/δ-LBD dual luciferase reporter-gene assay in 293T cells). Type of series: cell-based. Conditions: dose-response curves 10^−11–10^−6 M. (In general: In a reporter assay the amount or activity of a reporter protein is the signal.)

The EC50 is the concentration that produces a half-maximal response.

Where “and” joins values, the source holds several entries; their conditions need not be identical. Equal entries are not always repeated. Entries after “also recorded” stand apart in the source; their conditions may differ. Where two headings read alike, the source gives them in different places.

As to `CC(C)(Oc1ccc(CCNC(=O)c2ccc(Cl)cc2)cc1)C(=O)O` [Bezafibrate], the “ANS fluorescence quenching / ANS probe displacement (qualitative)” value on hPPARß/δ LBD [1] is “did not dislocate the ANS probe; also recorded: did not show a fluorescence quenching”. Also, the Tm variation at hPPARß/δ LBD [2] is 2.9 ± 0.1 °C and 2.9 °C.
As for `Cc1cc(SCc2sc(-c3ccc(C(F)(F)F)c(F)c3)nc2C)ccc1OCC(=O)O` [GW0742], in the series on 293T cells, the “cytotoxicity (MTT / Renilla reporter expression)” value is recorded as “no cytotoxicity”.
Take `Cc1cc(SCc2sc(-c3ccc(C(F)(F)F)cc3)nc2C)ccc1OCC(=O)O` [GW501516]: the EC50 in the series with PPARß/δ [3] (ref [7]) is 1.8 nM.
In the case of `CCCc1c(OCCCOc2ccc(OCC(=O)O)cc2)ccc(C(C)=O)c1O` [L-165,041], on hPPARß/δ LBD [1], the “ANS fluorescence quenching / ANS probe displacement (qualitative)” value is on record as “showed quenching in the ANS fluorescence”. The Kd on hPPARß/δ LBD [1] (read-out: apparent dissociation constant (Kdapp)) is 1090 ± 80 nM. Besides, the Tm variation on hPPARß/δ LBD [2] was 7.3 ± 0.7 °C and 7.3 °C. The concentration giving a half-maximal response (EC50) in the series on PPARß/δ [3] (ref [25]) is 125 nM; on PPARß/δ [4], 26.4 nM.
